Experimental data as given in patent US20230295234A1, “ANTIMICROBIAL PEPTIDOMIMETICS” (SPEXIS AG, priority 2020, published 2023).
Peptide text beside a SMILES is read from it.

Key:
[1] = system: Escherichia coli ATCC 25922; details: ATCC 25922
Method in brief: (§1)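 Activity is measured against peptides serially diluted two-fold in water with 0.002% final Polysorbate 80. The cells are in cation-adjusted MHII broth at roughly 5×10^5 CFU/mL, prepared from a 0.5 McFarland suspension in 0.85% NaCl.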

[2] = system: Escherichia coli MCR-1 Af 45; details: MCR-1 Af 45
Method in brief: as §1

[3] = system: Klebsiella pneumoniae SSI3010; details: SSI3010
Method in brief: as §1

[4] = system: human red blood cells (hRBC); assay: Hemolysis of human red blood cells; type: cell-based; details: red cells of human, 1 h
Method in brief: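 PBS-washed human red blood cells (20% v/v) were incubated with peptide at 200 μg/mL for 1 h at 37 °C with shaking. Supernatant OD was read at 540 nm after 8-fold dilution. Hemolysis is expressed as percent of the water control.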

Row | Escherichia coli ATCC 25922 MIC [1] [µg/mL] | Escherichia coli MCR-1 Af 45 MIC [2] [µg/mL] | Klebsiella pneumoniae SSI3010 MIC [3] [µg/mL] | Compound | Hemolysis at 0.2 g/L [4] [%]
1 | ≤0.03125 | ≤0.03125 | 0.25 | CC[C@H](C)[C@H](NC(=O)[C@@H]1CCCN1C(=O)[C@@H](NC(=O)[C@@H]1CCCN1C(=O)[C@H](CCCNC(=N)N)NC(=O)[C@@H](N)CCCCN)C(C)C)C(=O)N[C@H](C(=O)N[C@@H](Cc1ccc(O)cc1)C(=O)N[C@@H]1C(=O)N[C@@H](CC(N)=O)C(=O)N[C@@H](CCCNC(=N)N)C(=O)N[C@@H](CCN)C(=O)N[C@@H]([C@@H](C)O)C(=O)N[C@H](CCN)C(=O)N[C@@H](CCCCN)C(=O)N[C@H](C(=O)N[C@@H](CCN)C(=O)N[C@@H](CCCNC(=N)N)C(=O)N[C@@H](Cc2ccc(O)cc2)C(=O)O)CSSC1(C)C)[C@@H](C)O [Example 87] (HELM PEPTIDE1{K.R.P.V.P.I.T.Y.[Pen].N.R.[Dab].T.[NCC[C@@H](N[*:1])C(=O)[*:2]].K.C.[Dab].R.Y}$PEPTIDE1,PEPTIDE1,9:R3-16:R3$$$V2.0) | 0
2 | ≤0.03125 | ≤0.03125 | 0.0625 | CC[C@H](C)[C@H](NC(=O)[C@@H]1CCCN1C(=O)[C@@H](NC(=O)CN(C)C(=O)[C@H](CCCNC(=N)N)NC(=O)[C@@H](N)CCCCN)C(C)C)C(=O)N[C@H](C(=O)N[C@@H](Cc1ccc(O)cc1)C(=O)N[C@@H]1C(=O)N[C@@H](CC(N)=O)C(=O)N[C@@H](CCCNC(=N)N)C(=O)N[C@@H](CCN)C(=O)N[C@@H]([C@@H](C)O)C(=O)N[C@H](CCN)C(=O)N[C@@H](CCCCN)C(=O)N[C@H](C(=O)N[C@@H](CCN)C(=O)N[C@@H](CCCNC(=N)N)C(=O)N[C@@H](Cc2ccc(O)cc2)C(=O)O)CSSC1(C)C)[C@@H](C)O [Example 88, Lys-Arg-Sar-Val-Pro-Ile-Thr-Tyr-Pen-Asn-Arg-Dab-Thr-^DDab-Lys-Cys-Dab-Arg-Tyr] (HELM PEPTIDE1{K.R.[Sar].V.P.I.T.Y.[Pen].N.R.[Dab].T.[NCC[C@@H](N[*:1])C(=O)[*:2]].K.C.[Dab].R.Y}$PEPTIDE1,PEPTIDE1,9:R3-16:R3$$$V2.0) | 0
3 | 0.0625 | ≤0.03125 | 0.0625 | CC[C@H](C)[C@H](NC(=O)[C@@H]1CCCN1C(=O)[C@@H](NC(=O)CN(C)C(=O)[C@H](CCCNC(=N)N)NC(=O)[C@@H](N)CCCCN)C(C)C)C(=O)N[C@@H](Cc1ccccc1)C(=O)N[C@@H](Cc1ccc(O)cc1)C(=O)N[C@@H]1C(=O)N[C@@H](CC(N)=O)C(=O)N[C@@H](CCCNC(=N)N)C(=O)N[C@@H](CCN)C(=O)N[C@@H]([C@@H](C)O)C(=O)N[C@H](CCN)C(=O)N[C@@H](CCCCN)C(=O)N[C@H](C(=O)N[C@@H](CCN)C(=O)N[C@@H](CCCNC(=N)N)C(=O)N[C@@H](Cc2ccc(O)cc2)C(=O)O)CSSC1(C)C [Example 89, Lys-Arg-Sar-Val-Pro-Ile-Phe-Tyr-Pen-Asn-Arg-Dab-Thr-^DDab-Lys-Cys-Dab-Arg-Tyr] (HELM PEPTIDE1{K.R.[Sar].V.P.I.F.Y.[Pen].N.R.[Dab].T.[NCC[C@@H](N[*:1])C(=O)[*:2]].K.C.[Dab].R.Y}$PEPTIDE1,PEPTIDE1,9:R3-16:R3$$$V2.0) | 0
4 | 0.125 | ≤0.03125 | 0.125 | CC[C@H](C)[C@H](NC(=O)[C@@H](NC(=O)[C@@H]1CCCN1C(=O)[C@@H](NC(=O)CN(C)C(=O)CNC(=O)[C@@H](N)CCCCN)C(C)C)[C@@H](C)CC)C(=O)N[C@@H](Cc1ccc(O)cc1)C(=O)N[C@@H]1C(=O)N[C@@H](CC(N)=O)C(=O)N[C@@H](CCCNC(=N)N)C(=O)N[C@@H](CCN)C(=O)N[C@@H]([C@@H](C)O)C(=O)N[C@H](CCN)C(=O)N[C@@H](CCCCN)C(=O)N[C@H](C(=O)N[C@@H](CCN)C(=O)N[C@@H](CCCNC(=N)N)C(=O)N[C@@H](Cc2ccc(O)cc2)C(=O)O)CSSC1(C)C [Example 94, Lys-Gly-Sar-Val-Pro-Ile-Ile-Tyr-Pen-Asn-Arg-Dab-Thr-^DDab-Lys-Cys-Dab-Arg-Tyr] (HELM PEPTIDE1{K.G.[Sar].V.P.I.I.Y.[Pen].N.R.[Dab].T.[NCC[C@@H](N[*:1])C(=O)[*:2]].K.C.[Dab].R.Y}$PEPTIDE1,PEPTIDE1,9:R3-16:R3$$$V2.0) | 0

More lines, now with the values behind:

Row | Compound | Escherichia coli ATCC 25922 MIC [1] [µg/mL] | Escherichia coli MCR-1 Af 45 MIC [2] [µg/mL] | Klebsiella pneumoniae SSI3010 MIC [3] [µg/mL] | Hemolysis at 0.2 g/L [4] [%]
5 | CC[C@H](C)[C@H](NC(=O)[C@@H](NC(=O)[C@@H]1CCCN1C(=O)[C@@H](NC(=O)[C@@H]1CCCN1C(=O)[C@@H](C)NC(=O)[C@@H](N)CCCCN)C(C)C)[C@@H](C)CC)C(=O)N[C@@H](Cc1ccc(O)cc1)C(=O)N[C@@H]1C(=O)N[C@@H](CC(N)=O)C(=O)N[C@@H](CCCNC(=N)N)C(=O)N[C@@H](CCN)C(=O)N[C@@H]([C@@H](C)O)C(=O)N[C@H](CCN)C(=O)N[C@@H](CCCCN)C(=O)N[C@H](C(=O)N[C@@H](CCN)C(=O)N[C@@H](CCCNC(=N)N)C(=O)N[C@@H](Cc2ccc(O)cc2)C(=O)O)CSSC1(C)C [Example 90, Lys-^DAla-Pro-Val-Pro-Ile-Ile-Tyr-Pen-Asn-Arg-Dab-Thr-^DDab-Lys-Cys-Dab-Arg-Tyr] (HELM PEPTIDE1{K.[dA].P.V.P.I.I.Y.[Pen].N.R.[Dab].T.[NCC[C@@H](N[*:1])C(=O)[*:2]].K.C.[Dab].R.Y}$PEPTIDE1,PEPTIDE1,9:R3-16:R3$$$V2.0) | 0.25 | 0.0625 | 0.125 | 0
6 | CC[C@H](C)[C@H](NC(=O)[C@@H](NC(=O)[C@@H]1CCCN1C(=O)[C@@H](NC(=O)[C@@H]1CCCN1C(=O)CNC(=O)[C@@H](N)CCCCN)C(C)C)[C@@H](C)CC)C(=O)N[C@@H](Cc1ccc(O)cc1)C(=O)N[C@@H]1C(=O)N[C@@H](CC(N)=O)C(=O)N[C@@H](CCCNC(=N)N)C(=O)N[C@@H](CCN)C(=O)N[C@@H]([C@@H](C)O)C(=O)N[C@H](CCN)C(=O)N[C@@H](CCCCN)C(=O)N[C@H](C(=O)N[C@@H](CCN)C(=O)N[C@@H](CCCNC(=N)N)C(=O)N[C@@H](Cc2ccc(O)cc2)C(=O)O)CSSC1(C)C [Example 91] (HELM PEPTIDE1{K.G.P.V.P.I.I.Y.[Pen].N.R.[Dab].T.[NCC[C@@H](N[*:1])C(=O)[*:2]].K.C.[Dab].R.Y}$PEPTIDE1,PEPTIDE1,9:R3-16:R3$$$V2.0) | 0.125 | ≤0.03125 | 0.125 | 0
7 | CC[C@H](C)[C@H](NC(=O)[C@@H](NC(=O)[C@@H]1CCCN1C(=O)[C@@H](NC(=O)[C@@H]1CCCN1C(=O)CN(C)C(=O)[C@@H](N)CCCCN)C(C)C)[C@@H](C)CC)C(=O)N[C@@H](Cc1ccc(O)cc1)C(=O)N[C@@H]1C(=O)N[C@@H](CC(N)=O)C(=O)N[C@@H](CCCNC(=N)N)C(=O)N[C@@H](CCN)C(=O)N[C@@H]([C@@H](C)O)C(=O)N[C@H](CCN)C(=O)N[C@@H](CCCCN)C(=O)N[C@H](C(=O)N[C@@H](CCN)C(=O)N[C@@H](CCCNC(=N)N)C(=O)N[C@@H](Cc2ccc(O)cc2)C(=O)O)CSSC1(C)C [Example 92, Lys-Sar-Pro-Val-Pro-Ile-Ile-Tyr-Pen-Asn-Arg-Dab-Thr-^DDab-Lys-Cys-Dab-Arg-Tyr] (HELM PEPTIDE1{K.[Sar].P.V.P.I.I.Y.[Pen].N.R.[Dab].T.[NCC[C@@H](N[*:1])C(=O)[*:2]].K.C.[Dab].R.Y}$PEPTIDE1,PEPTIDE1,9:R3-16:R3$$$V2.0) | 0.0625 | ≤0.03125 | 0.0625 | 0
8 | CC[C@H](C)[C@H](NC(=O)[C@@H](NC(=O)[C@@H]1CCCN1C(=O)[C@@H](NC(=O)CNC(=O)CNC(=O)[C@@H](N)CCCCN)C(C)C)[C@@H](C)CC)C(=O)N[C@@H](Cc1ccc(O)cc1)C(=O)N[C@@H]1C(=O)N[C@@H](CC(N)=O)C(=O)N[C@@H](CCCNC(=N)N)C(=O)N[C@@H](CCN)C(=O)N[C@@H]([C@@H](C)O)C(=O)N[C@H](CCN)C(=O)N[C@@H](CCCCN)C(=O)N[C@H](C(=O)N[C@@H](CCN)C(=O)N[C@@H](CCCNC(=N)N)C(=O)N[C@@H](Cc2ccc(O)cc2)C(=O)O)CSSC1(C)C [Example 93] (HELM PEPTIDE1{K.G.G.V.P.I.I.Y.[Pen].N.R.[Dab].T.[NCC[C@@H](N[*:1])C(=O)[*:2]].K.C.[Dab].R.Y}$PEPTIDE1,PEPTIDE1,9:R3-16:R3$$$V2.0) | 0.0625 | 0.0625 | 0.125 | 0
9 | CC[C@H](C)[C@H](NC(=O)[C@@H](NC(=O)[C@@H]1CCCN1C(=O)[C@@H](NC(=O)CN(C)C(=O)CN(C)C(=O)[C@@H](N)CCCCN)C(C)C)[C@@H](C)CC)C(=O)N[C@@H](Cc1ccc(O)cc1)C(=O)N[C@@H]1C(=O)N[C@@H](CC(N)=O)C(=O)N[C@@H](CCCNC(=N)N)C(=O)N[C@@H](CCN)C(=O)N[C@@H]([C@@H](C)O)C(=O)N[C@H](CCN)C(=O)N[C@@H](CCCCN)C(=O)N[C@H](C(=O)N[C@@H](CCN)C(=O)N[C@@H](CCCNC(=N)N)C(=O)N[C@@H](Cc2ccc(O)cc2)C(=O)O)CSSC1(C)C [Example 95, Lys-Sar-Sar-Val-Pro-Ile-Ile-Tyr-Pen-Asn-Arg-Dab-Thr-^DDab-Lys-Cys-Dab-Arg-Tyr] (HELM PEPTIDE1{K.[Sar].[Sar].V.P.I.I.Y.[Pen].N.R.[Dab].T.[NCC[C@@H](N[*:1])C(=O)[*:2]].K.C.[Dab].R.Y}$PEPTIDE1,PEPTIDE1,9:R3-16:R3$$$V2.0) | 0.125 | 0.125 | 0.25 | 0
